Experimental findings from patent US9493436B2, “Tyrosine phosphatase inhibitors and uses thereof to modulate the activity of enzymes involved in the pathology of Mycobacterium tuberculosis” (priority 2011, dated 2016) are described below.

For one assay, the target named is Laforin (Homo sapiens, UniProt O95278). It counts as biochemical.
Assay [1] concerns Akt phosphorylation in Raw264.7 cells expressing mPTPB. It counts as cell-based, mouse. Conditions: macrophage cells expressing mPTPB, increasing concentrations.
The target of a further assay is T1, Cdc14A (Homo sapiens, UniProt Q9UNH5).
T1 sequence (Q9UNH5 1-594): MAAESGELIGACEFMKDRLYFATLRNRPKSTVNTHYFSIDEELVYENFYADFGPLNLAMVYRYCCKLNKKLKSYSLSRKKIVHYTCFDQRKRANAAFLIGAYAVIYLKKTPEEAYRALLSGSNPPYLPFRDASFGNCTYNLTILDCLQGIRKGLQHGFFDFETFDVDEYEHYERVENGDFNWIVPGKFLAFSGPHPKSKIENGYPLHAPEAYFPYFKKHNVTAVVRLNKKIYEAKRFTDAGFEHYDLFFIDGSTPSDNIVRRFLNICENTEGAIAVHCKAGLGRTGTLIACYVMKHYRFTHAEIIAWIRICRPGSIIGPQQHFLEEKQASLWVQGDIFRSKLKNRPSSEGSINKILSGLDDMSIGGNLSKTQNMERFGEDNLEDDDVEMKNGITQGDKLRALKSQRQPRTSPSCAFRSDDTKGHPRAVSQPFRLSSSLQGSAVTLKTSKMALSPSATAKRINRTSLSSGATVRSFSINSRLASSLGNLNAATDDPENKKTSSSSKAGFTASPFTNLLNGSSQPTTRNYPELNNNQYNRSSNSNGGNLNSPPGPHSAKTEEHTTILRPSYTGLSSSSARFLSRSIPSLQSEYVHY
As to the kind of experiment: PTP selectivity panel: Cdc14A. It counts as biochemical.

A further assay addresses SHP2 (Homo sapiens, UniProt Q06124). Particulars: read-out: IC50 (μM) SHP2.
Another assay deals with SHP2-D2C (Homo sapiens, UniProt Q06124). Briefly: biochemical. Format: biochemical.
Chain of SHP2-D2C (Q06124 224-528 limits assumed): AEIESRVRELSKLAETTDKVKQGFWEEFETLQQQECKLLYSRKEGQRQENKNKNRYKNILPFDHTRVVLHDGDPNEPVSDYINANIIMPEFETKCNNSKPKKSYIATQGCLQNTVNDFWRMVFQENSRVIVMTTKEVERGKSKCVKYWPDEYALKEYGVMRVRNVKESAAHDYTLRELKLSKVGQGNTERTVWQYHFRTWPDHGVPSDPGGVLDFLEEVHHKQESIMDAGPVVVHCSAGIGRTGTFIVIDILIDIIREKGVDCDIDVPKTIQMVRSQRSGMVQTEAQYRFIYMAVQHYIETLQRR

Chain of Laforin (O95278 whole entry, species assumed): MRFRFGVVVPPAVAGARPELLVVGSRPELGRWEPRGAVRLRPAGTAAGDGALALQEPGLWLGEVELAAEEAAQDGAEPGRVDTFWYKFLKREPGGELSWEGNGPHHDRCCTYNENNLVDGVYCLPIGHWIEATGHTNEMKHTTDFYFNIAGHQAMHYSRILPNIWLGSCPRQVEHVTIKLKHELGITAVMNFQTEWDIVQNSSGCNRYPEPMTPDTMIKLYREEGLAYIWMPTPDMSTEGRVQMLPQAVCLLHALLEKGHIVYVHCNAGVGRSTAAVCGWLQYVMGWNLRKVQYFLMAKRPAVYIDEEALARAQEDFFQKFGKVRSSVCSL
Chain of SHP2 (Q06124 whole entry, species assumed): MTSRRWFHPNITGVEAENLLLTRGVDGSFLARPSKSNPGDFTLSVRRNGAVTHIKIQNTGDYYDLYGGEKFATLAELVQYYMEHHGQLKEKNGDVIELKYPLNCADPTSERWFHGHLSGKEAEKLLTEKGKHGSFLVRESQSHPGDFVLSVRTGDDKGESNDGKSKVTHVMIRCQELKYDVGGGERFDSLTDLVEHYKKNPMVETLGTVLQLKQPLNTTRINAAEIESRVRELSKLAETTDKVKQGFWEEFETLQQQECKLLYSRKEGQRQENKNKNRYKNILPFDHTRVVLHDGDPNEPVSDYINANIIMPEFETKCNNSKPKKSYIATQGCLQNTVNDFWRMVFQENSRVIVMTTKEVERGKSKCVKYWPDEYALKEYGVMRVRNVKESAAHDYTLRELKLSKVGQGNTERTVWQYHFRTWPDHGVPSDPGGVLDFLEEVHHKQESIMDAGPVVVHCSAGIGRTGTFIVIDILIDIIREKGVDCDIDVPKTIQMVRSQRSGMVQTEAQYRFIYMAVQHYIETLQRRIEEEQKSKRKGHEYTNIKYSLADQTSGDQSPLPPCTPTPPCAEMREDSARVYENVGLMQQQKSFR

As to `O=C(O)c1cc2c(C#Cc3cccc(C(F)(F)F)c3)c(-c3ccccc3)oc2cc1O` [32 (L01Z08)], the concentration for half-maximal inhibition (IC50) – broadly, the concentration at which inhibition is half-maximal – against Laforin was determined as 40 ± 10 µM; against Cdc14A it was 6 ± 1 µM; on SHP2, 1.8 ± 0.2 µM. Further, the “AKT phosphorylation / Akt activation” value in assay [1] is on record as “phosphorylation decreasing with treatments of increasing concentrations”.
For `Cn1c(-c2ccccc2C(F)(F)F)c(I)c2cc(C(=O)O)c(O)cc21` [Compound 207a, 6-hydroxy-3-iodo-1-methyl-2-(2-(trifluoromethyl)phenyl)-1H-indole-5-carboxylic acid], on SHP2-D2C, the IC50 amounted to 87 ± 4 µM.
